Measured values from PubChem BioAssay AID244 (DTP/NCI, 2004).
Where “and” joins values, the source holds several entries; their conditions need not be identical. Identical values can stand only once. Results filed as inconclusive are left out.

Test system: CD2F1 mice, Lymphoma 8 ip, survival T/C
Test: NCI In Vivo Anticancer Drug Screen. Data for tumor model Lymphoma 8 (intraperitoneal) in CD2F1 (CDF1) mice
Conditions: endpoint: median survival time, vehicle: saline, higher = longer survival
Procedure: The antitumor activity of compounds was measured in mice bearing transplantable tumors. Survival or tumor size were measured and the results are expressed as the measurement made in the treated group (T) divided by the measurement made in the vehicle treated control group (C). The tumor model used in this assay is Lymphoma 8 (intraperitoneal) in CD2F1 (CDF1) mice

[1] = dose: 50.0 mg/kg/injection, schedule: Q01DX005 (ip)

NC(CC(=O)CCl)C(=O)O (stereo not given)
T/C (dose: 1.6 mg/kg/injection, schedule: Q01DX005 (ip)): 100 % of control | T/C (dose: 3.13 mg/kg/injection, schedule: Q01DX005 (ip)): 92 % of control and 96 % of control and 108 % of control | T/C (dose: 6.25 mg/kg/injection, schedule: Q01DX005 (ip)): 100 % of control and 103 % of control and 108 % of control | T/C (dose: 12.5 mg/kg/injection, schedule: Q01DX001 (ip)): 100 % of control | T/C (dose: 12.5 mg/kg/injection, schedule: Q01DX005 (ip)): 100 % of control and 103 % of control and 107 % of control | T/C (dose: 25.0 mg/kg/injection, schedule: Q01DX001 (ip)): 100 % of control | T/C (dose: 25.0 mg/kg/injection, schedule: Q01DX005 (ip)): 111 % of control and 114 % of control and 120 % of control | T/C (dose: 50.0 mg/kg/injection, schedule: Q01DX001 (ip)): 108 % of control | T/C [1]: 37 % of control | T/C (dose: 100.0 mg/kg/injection, schedule: Q01DX001 (ip)): 91 % of control

NC(CS(N)(=O)=O)C(=O)O (stereo not given)
T/C [1]: 92 % of control | T/C (dose: 100.0 mg/kg/injection, schedule: Q01DX005 (ip)): 92 % of control | T/C (dose: 200.0 mg/kg/injection, schedule: Q01DX005 (ip)): 96 % of control and 97 % of control | T/C (dose: 400.0 mg/kg/injection, schedule: Q01DX005 (ip)): 92 % of control and 94 % of control

N=[N+]=CC(=O)CCC(NC(=O)C(CCC(=O)C=[N+]=N)NC(=O)CCC(N)C(=O)O)C(=O)O (stereo not given)
T/C (dose: 0.31 mg/kg/injection, schedule: Q04DX002 (ip)): 111 % of control | T/C (dose: 0.63 mg/kg/injection, schedule: Q04DX002 (ip)): 107 % of control | T/C (dose: 1.25 mg/kg/injection, schedule: Q04DX002 (ip)): 115 % of control | T/C (dose: 2.5 mg/kg/injection, schedule: Q01DX006 (ip)): 121 % of control | T/C (dose: 10.0 mg/kg/injection, schedule: Q01DX006 (ip)): 121 % of control | T/C (dose: 10.0 mg/kg/injection, schedule: Q04DX002 (ip)): 169 % of control | T/C (dose: 20.0 mg/kg/injection, schedule: Q01DX001 (ip)): 107 % of control | T/C (dose: 20.0 mg/kg/injection, schedule: Q04DX002 (ip)): 153 % of control | T/C (dose: 40.0 mg/kg/injection, schedule: Q04DX002 (ip)): 180 % of control | T/C (dose: 40.0 mg/kg/injection, schedule: Q04DX003 (ip)): 169 % of control | T/C (dose: 60.0 mg/kg/injection, schedule: Q01DX001 (ip)): 107 % of control | T/C (dose: 60.0 mg/kg/injection, schedule: Q04DX002 (ip)): 180 % of control | T/C (dose: 60.0 mg/kg/injection, schedule: Q04DX003 (ip)): 176 % of control | T/C (dose: 80.0 mg/kg/injection, schedule: Q01DX006 (ip)): 171 % of control | T/C (dose: 80.0 mg/kg/injection, schedule: Q04DX003 (ip)): 188 % of control

CC(=O)NC(CCC(=O)C=[N+]=N)C(=O)O (stereo not given)
T/C (dose: 0.5 mg/kg/injection, schedule: Q01DX002 (ip)): 100 % of control | T/C (dose: 0.5 mg/kg/injection, schedule: Q04DX002 (ip)): 96 % of control | T/C (dose: 1.0 mg/kg/injection, schedule: Q01DX002 (ip)): 103 % of control | T/C (dose: 1.0 mg/kg/injection, schedule: Q04DX002 (ip)): 114 % of control | T/C (dose: 2.0 mg/kg/injection, schedule: Q01DX002 (ip)): 106 % of control | T/C (dose: 2.0 mg/kg/injection, schedule: Q04DX002 (ip)): 107 % of control

CNC(=O)CC(N)C(=O)O (stereo not given)
T/C (dose: 75.0 mg/kg/injection, schedule: Q01DX005 (ip)): 96 % of control and 102 % of control | T/C (dose: 150.0 mg/kg/injection, schedule: Q01DX005 (ip)): 107 % of control and 113 % of control | T/C (dose: 300.0 mg/kg/injection, schedule: Q01DX005 (ip)): 93 % of control and 113 % of control | T/C (dose: 600.0 mg/kg/injection, schedule: Q01DX005 (ip)): 95 % of control and 114 % of control | T/C (dose: 1200.0 mg/kg/injection, schedule: Q01DX005 (ip)): 102 % of control
